Laboratory results reported in ChEMBL document CHEMBL2021861, “Structure-activity relationship study of opiorphin, a human dual ectopeptidase inhibitor with antinociceptive properties” (J Med Chem, 2012).
Numbered stars: 1 amine (or outer) side, 2 acyl side, 3 side chain; on linkers, the order of the positions; unused ones are H or OH. Square brackets hold non-standard residues; d marks the D form. Peptide text beside a SMILES is read from it. β3hPhg = O=C(C[C@@H](N[*:1])c1ccccc1)[*:2]; Phg = N[C@H](C(=O)O)c1ccccc1

What was measured:
Neprilysin = Neprilysin (Homo sapiens, UniProt P08473); assay: Inhibition of human recombinant NEP ectopeptidase activity using Abz-dRGL-(EDDnp) as substrate preincubated for 10 mins with substrate by fluorimetric analysis
Sequence of Neprilysin (P08473 whole entry): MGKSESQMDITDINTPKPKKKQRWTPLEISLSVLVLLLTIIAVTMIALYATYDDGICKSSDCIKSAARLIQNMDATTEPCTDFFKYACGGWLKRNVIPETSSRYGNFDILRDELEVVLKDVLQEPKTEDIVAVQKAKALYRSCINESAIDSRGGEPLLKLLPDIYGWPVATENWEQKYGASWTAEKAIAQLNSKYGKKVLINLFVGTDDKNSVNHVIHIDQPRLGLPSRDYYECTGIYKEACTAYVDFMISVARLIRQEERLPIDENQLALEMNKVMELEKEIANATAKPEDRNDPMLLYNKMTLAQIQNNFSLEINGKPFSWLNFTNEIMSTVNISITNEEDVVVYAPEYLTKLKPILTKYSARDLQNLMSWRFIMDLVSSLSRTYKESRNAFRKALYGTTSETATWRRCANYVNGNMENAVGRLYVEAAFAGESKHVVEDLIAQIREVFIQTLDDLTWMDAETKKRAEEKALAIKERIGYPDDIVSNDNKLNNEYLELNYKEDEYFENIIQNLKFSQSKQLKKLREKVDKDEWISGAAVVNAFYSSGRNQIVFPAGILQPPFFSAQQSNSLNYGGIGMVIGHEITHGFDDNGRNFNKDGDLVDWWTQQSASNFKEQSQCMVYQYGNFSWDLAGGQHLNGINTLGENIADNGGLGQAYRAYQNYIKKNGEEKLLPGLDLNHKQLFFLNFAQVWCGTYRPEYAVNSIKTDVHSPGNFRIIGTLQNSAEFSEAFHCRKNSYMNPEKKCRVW

Aminopeptidase N = Aminopeptidase N (Homo sapiens, UniProt P15144); assay: Inhibition of human recombinant AP-N ectopeptidase activity using alanine-MCA as substrate preincubated for 10 mins with substrate by fluorimetric analysis
Sequence of Aminopeptidase N (P15144 whole entry): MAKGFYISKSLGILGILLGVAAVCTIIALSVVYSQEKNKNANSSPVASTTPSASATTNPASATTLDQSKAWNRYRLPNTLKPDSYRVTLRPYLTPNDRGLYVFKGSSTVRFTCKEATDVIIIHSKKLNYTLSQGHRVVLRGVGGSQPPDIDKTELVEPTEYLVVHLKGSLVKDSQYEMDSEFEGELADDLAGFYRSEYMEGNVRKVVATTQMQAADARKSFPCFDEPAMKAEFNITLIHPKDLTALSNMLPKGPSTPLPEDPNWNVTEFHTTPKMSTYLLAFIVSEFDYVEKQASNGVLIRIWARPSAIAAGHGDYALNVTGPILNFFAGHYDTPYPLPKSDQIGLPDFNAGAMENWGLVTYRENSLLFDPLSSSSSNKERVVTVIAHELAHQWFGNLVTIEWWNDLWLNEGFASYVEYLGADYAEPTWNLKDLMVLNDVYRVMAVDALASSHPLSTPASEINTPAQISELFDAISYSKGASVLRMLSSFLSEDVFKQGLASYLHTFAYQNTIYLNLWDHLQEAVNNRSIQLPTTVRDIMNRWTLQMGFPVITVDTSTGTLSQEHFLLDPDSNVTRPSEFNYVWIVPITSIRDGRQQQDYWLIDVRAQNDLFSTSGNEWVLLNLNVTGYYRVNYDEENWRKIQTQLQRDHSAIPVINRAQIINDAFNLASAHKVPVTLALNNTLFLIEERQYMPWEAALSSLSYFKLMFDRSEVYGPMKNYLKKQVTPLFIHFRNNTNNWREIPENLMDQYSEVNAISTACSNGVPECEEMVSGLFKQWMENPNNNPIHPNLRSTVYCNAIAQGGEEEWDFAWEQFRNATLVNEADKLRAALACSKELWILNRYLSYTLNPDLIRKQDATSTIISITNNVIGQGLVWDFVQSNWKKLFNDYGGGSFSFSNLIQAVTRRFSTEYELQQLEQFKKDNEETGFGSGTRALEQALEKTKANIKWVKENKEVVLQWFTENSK

IC50 (Neprilysin) [µM]	IC50 (Aminopeptidase N) [µM]	Compound
> 100	–	N=C(N)NCCC[C@H](NC(=O)[C@H](CO)NC(=O)[C@@H](NC(=O)[C@H](CCCNC(=N)N)NC(=O)[C@@H](N)CCC(N)=O)c1ccccc1)C(=O)O (H-QR[Phg]SR-OH)
> 100	> 70	NC(=O)CC[C@H](N)C(=O)N[C@@H](CCCN=C(N)N)C(=O)N[C@H](CC(=O)N[C@@H](CO)C(=O)N[C@@H](CCCN=C(N)N)C(=O)O)c1ccccc1 (H-QR[β3hPhg]SR-OH)
> 70	–	H-ARFSR-OH
> 100	> 70	H-QRASR-OH
–	> 70	H-QRFSA-OH
